{
  "source": "patent US20140012041A1",
  "about": "“METHOD FOR PRODUCING LACTATE” (TORAY INDUSTRIES, INC., priority 2010, published 2014)",
  "test": "Concentration of lactic acid fermentation culture medium with reverse osmosis membrane at 50° C. until calcium lactate precipitates",
  "conditions": "no calcium formate added",
  "experimental": "While the recovered concentrate was incubated at 50° C., the concentrate was filtered by suction filtration through Qualitative Filter Paper No. 2 (manufactured by [sequence]) to remove the precipitated calcium lactate crystals.",
  "data": [
    {"smiles": "CC(O)C(=O)[O-].CC(O)C(=O)[O-].[Ca+2]", "note": "(stereo not drawn) [calcium lactate]", "values": [
      {"measurement": "concentration of calcium lactate at which precipitation was found", "setting": "D-lactic acid fermentation medium (SL strain)", "value": 12.5, "unit": "% by weight"},
      {"measurement": "concentration of calcium lactate at which precipitation was found", "setting": "L-lactic acid fermentation medium (LC strain)", "value": 12.8, "unit": "% by weight"},
      {"measurement": "concentration of calcium lactate at which precipitation was found", "setting": "L-lactic acid fermentation medium (yeast HI003 strain)", "value": 12.0, "unit": "% by weight"}
    ]}
  ]
}
